{
  "source": "patent US20040014721A1",
  "about": "“Method for using tethered bis(polyhydroxyphenyls) and O-alkyl derivatives thereof in treating inflammatory conditions of the central nervous system” (Oklahoma Medical Research Foundation, priority 2002, published 2004)",
  "key": {"Aβ-induced neurotoxicity": {"tested_on": "Aβ-induced neurotoxicity", "test": "Rat model of Aβ-induced neurotoxicity (ICV Aβ40 + Aβ42 + ApoE4), radial eight-arm maze", "assay_type": "in vivo, Sprague-Dawley male rats", "details": "0.25% NDGA diet", "excerpt": "In this model, rats are infused intracerebroventricularly (ICV) with Aβ adsorbed to an apo-lipoprotein carrier. Thus, to determine whether dicatechol (e.g., microglial inhibitor nordihydroguaiaretic acid) blocks Aβ-induced neurotoxicity the Frautschy model was used. […] Each group consisted of six rats fed either a control or an NDGA supplemented diet (Table VII).\nRats were trained on a radial eight-arm maze as described previously. After they achieved 0-2 error level, they underwent surgery for implantation of the cannulae and osmotic pumps. Twenty-four hours after surgery, they were started on the dietary treatment.\nTime and error scores from six trials for each experimental group were subjected to analysis of variance (ANOVA). Tucky-Kramer test for multiple comparisons was used as a posthoc test. Performance in the memory task was analyzed separately over all six trials."}, "C57/B6 mice": {"tested_on": "C57/B6 mice", "test": "3-nitropropionic acid (3NP) striatal damage model, rotarod and balance beam", "assay_type": "in vivo", "details": "2500 ppm in diet for one month, then 3NP 50 mg/kg i.p. every 12 h for 5 days", "protocol": "Mice were then injected with 50 mg/kg 3NP intraperitoneally, every 12 h for 5 days. Motor performance was assessed daily by a rotarod task and balance was assessed by a balance wire task. In the rotarod task (Hensley et al. 2002), animals were placed on a bar rotating at 1 rpm and accelerating 10 rpm/minute until the animal fell from the bar. In the balance beam test, mice were placed on a 2-cm balance beam by suspending them by the tail, orienting them perpendicular to the beam, and placing the forepaws followed by hindpaws on the balance beam. Mice were left on the beam until they fell onto a soft cushion 75 cm below or until 5 min elapsed. The longest time of each pair of trials was used for statistical analysis."}, "[1]": {"tested_on": "prostaglandin E2 (PGE2) release in TNFα-stimulated EOC-20 cells", "test": "PGE2 release in TNFα-stimulated EOC-20 cells", "assay_type": "cell-based, mouse", "details": "submicromolar concentrations", "excerpt": "Prostaglandin E2, a product of the cyclooxygenation of arachidonic acid released from membrane phospholipids, plays major roles in regulating brain injury and inflammation. Although prostaglandin E2 has frequently been considered as a possible inducer of brain damage and degeneration, it may exert beneficial effects in the CNS. Indeed, in spite of its classic role as a pro-inflammatory molecule, several recent in vitro observations indicate that prostaglandin E2 can inhibit microglial activation."}, "rats": {"tested_on": "rats", "details": "rat, in vivo, po; cited from earlier work"}, "[2]": {"tested_on": "TNFα-Stimulated NO2^− Production in EOC-20 Cells", "test": "TNFα-stimulated nitrite (NO2−) production in EOC-20 microglial cells, Griess assay", "assay_type": "cell-based, mouse", "protocol": "Cells were cultured in 24 well plates until confluent then treated with test agent, which was dissolved at 100× final concentration in dimethylsulfoxide (DMSO), or with vehicle only. Thirty minutes after treatment with test agent, cells were treated with 10 ng/mL recombinant mouse TNFα (Pharmingen, San Diego, Calif. USA). […] Each compound was tested at 100 μM, 20 μM, 4 μM, 0.8 μM and 0 μM in the presence of TNFα. Four wells of cells were used for each concentration of test agent.\n(§1) Lower IC50 values indicate improved efficacy. FIG. 2 illustrates the principle of the measurement using NDGA as an example test agent. In order to determine viability, cell culture medium was replaced with phenol-free DMEM (Gibco) containing 20 μL/mL of MTT viability reagent (Promega). […] Control cells were taken to indicate 100% viability and intermediate values of MTT reduction were scaled to percentage of control. For each compound, an LD50 value was determined by extrapolation through sublethal concentrations. This value represents the concentration that reduced the MTT viability parameter by 50%."}, "EOC-20 cells": {"tested_on": "EOC-20 cells", "protocol": "as §1"}},
  "data": [
    {"smiles": "C[C@H](Cc1ccc(O)c(O)c1)[C@@H](C)Cc1ccc(O)c(O)c1", "note": "[NDGA, 1,4-bis (3,4-Dihydroxyphenyl)-2,3-dimethylbutane]", "values": [
      {"measurement": "working memory errors and latency", "setting": "Aβ-induced neurotoxicity; day 25", "result": "significant decrease in the number of working memory errors and latency"},
      {"measurement": "reference errors", "setting": "Aβ-induced neurotoxicity; day 25 and day 30, not significant", "result": "suppressed reference errors"},
      {"measurement": "balance test", "setting": "C57/B6 mice", "result": "significantly improved functional ability"},
      {"measurement": "rotarod test", "setting": "C57/B6 mice", "result": "significantly improved functional ability"},
      {"measurement": "inhibition of prostaglandin E2 (PGE2) release", "setting": "[1]", "result": "effective at submicromolar concentrations"},
      {"measurement": "inhibition of prostaglandin E2 (PGE2) release", "setting": "[1]; listed as NGDA", "result": "effectively inhibits prostaglandin E2 (PGE2)"},
      {"measurement": "LD50", "setting": "rats", "result": "more than 2000 mg/kg"},
      {"measurement": "NO2− suppression at 800 nM", "setting": "[2]; 800 nM", "result": "Significant NO2^− suppression"},
      {"measurement": "IC50", "setting": "[2]; Mus musculus, read-out: IC50", "result": "3 to 5", "unit": "µM"},
      {"measurement": "potency relative to minocycline", "setting": "[2]; fold more potent than minocycline", "result": "approximately 16 times"},
      {"measurement": "toxicity at 100 μM", "setting": "EOC-20 cells", "result": "no toxicity"}
    ]}
  ]
}
